# According to article PMC8429728, “TNK1 is a ubiquitin-binding and 14-3-3-regulated kinase that can be targeted to block tumor growth” (Nature Communications, 2021):
# Where two headings read alike, the source gives them in different places.
# Tests used:
# Assay in all cases: biochemical
# Design in all cases: Reaction Biology 371-kinase panel at Km ATP, per cent enzyme activity relative to DMSO, single dose in duplicate
# Settings in all cases: duplicate measurements, Km ATP
# MLK1/MAP3K9 = MLK1/MAP3K9 (Homo sapiens, UniProt P80192)
# In short: (§1)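 In vitro selectivity panel: 371 kinases, inhibitor at 300 nM; % activity vs DMSO; IC50 by variable-slope sigmoidal fit, bottom = 0.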
# PAK1 = PAK1 (Homo sapiens, UniProt Q13153)
# In short: as §1
# DYRK1B = DYRK1B (Homo sapiens, UniProt Q9Y463)
# In short: as §1
# SGK1 = SGK1 (Homo sapiens, UniProt O00141)
# In short: as §1
# NEK6 = NEK6 (Homo sapiens, UniProt Q9HC98)
# In short: as §1
# PLK2 = PLK2 (Homo sapiens, UniProt Q9NYY3)
# In short: as §1
# PKCiota = target: T1, PKCiota (Homo sapiens, UniProt P41743)
# T1 construct: gene PRKCI
# In short: as §1
# TBK1 = TBK1 (Homo sapiens, UniProt Q9UHD2)
# In short: as §1
# p70S6Kb/RPS6KB2 = p70S6Kb/RPS6KB2 (Homo sapiens, UniProt Q9UBS0)
# In short: as §1
# STK32C/YANK3 = STK32C/YANK3 (Homo sapiens, UniProt Q86UX6)
# In short: as §1
# TGFBR2 = TGFBR2 (Homo sapiens, UniProt P37173)
# In short: as §1
# CAMK1g = CAMK1g (Homo sapiens, UniProt Q96NX5)
# In short: as §1
# PHKg2 = PHKg2 (Homo sapiens, UniProt P15735)
# In short: as §1
# STK38/NDR1 = STK38/NDR1 (Homo sapiens, UniProt Q15208)
# In short: as §1
# CAMK2b = CAMK2b (Homo sapiens, UniProt Q13554)
# In short: as §1
# STK22D/TSSK1 = target: T2, STK22D/TSSK1 (Homo sapiens, UniProt Q9BXA7)
# T2 construct: gene TSSK1B
# In short: as §1
# GRK5 = GRK5 (Homo sapiens, UniProt P34947)
# In short: as §1
# HIPK1 = HIPK1 (Homo sapiens, UniProt Q86Z02)
# In short: as §1
# ERBB2/HER2 = ERBB2/HER2 (Homo sapiens, UniProt P04626)
# In short: as §1
# MKK4 = target: T3, MKK4 (Homo sapiens, UniProt P45985)
# T3 construct: gene MAP2K4
# In short: as §1
# [1] = read-out: % Enzyme Activity (relative to DMSO controls) / TP-0005801 (0.3µM) / Data 1
# [2] = read-out: % Enzyme Activity (relative to DMSO controls) / TP-0005801 (0.3µM) / Data 2
# CAMK1g, sequence (Q96NX5 whole entry): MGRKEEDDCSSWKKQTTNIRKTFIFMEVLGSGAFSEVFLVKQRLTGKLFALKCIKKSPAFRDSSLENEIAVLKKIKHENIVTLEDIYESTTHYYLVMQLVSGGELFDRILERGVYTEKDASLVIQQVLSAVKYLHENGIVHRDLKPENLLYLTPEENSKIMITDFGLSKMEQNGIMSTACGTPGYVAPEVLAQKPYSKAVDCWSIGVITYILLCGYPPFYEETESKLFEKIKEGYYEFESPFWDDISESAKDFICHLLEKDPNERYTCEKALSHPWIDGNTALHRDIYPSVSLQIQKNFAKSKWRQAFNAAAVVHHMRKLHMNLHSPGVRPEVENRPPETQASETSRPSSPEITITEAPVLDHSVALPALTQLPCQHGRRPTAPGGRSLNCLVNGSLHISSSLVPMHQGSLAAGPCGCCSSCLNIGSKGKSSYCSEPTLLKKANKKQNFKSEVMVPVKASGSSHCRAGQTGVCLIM
# TGFBR2, sequence (P37173 whole entry): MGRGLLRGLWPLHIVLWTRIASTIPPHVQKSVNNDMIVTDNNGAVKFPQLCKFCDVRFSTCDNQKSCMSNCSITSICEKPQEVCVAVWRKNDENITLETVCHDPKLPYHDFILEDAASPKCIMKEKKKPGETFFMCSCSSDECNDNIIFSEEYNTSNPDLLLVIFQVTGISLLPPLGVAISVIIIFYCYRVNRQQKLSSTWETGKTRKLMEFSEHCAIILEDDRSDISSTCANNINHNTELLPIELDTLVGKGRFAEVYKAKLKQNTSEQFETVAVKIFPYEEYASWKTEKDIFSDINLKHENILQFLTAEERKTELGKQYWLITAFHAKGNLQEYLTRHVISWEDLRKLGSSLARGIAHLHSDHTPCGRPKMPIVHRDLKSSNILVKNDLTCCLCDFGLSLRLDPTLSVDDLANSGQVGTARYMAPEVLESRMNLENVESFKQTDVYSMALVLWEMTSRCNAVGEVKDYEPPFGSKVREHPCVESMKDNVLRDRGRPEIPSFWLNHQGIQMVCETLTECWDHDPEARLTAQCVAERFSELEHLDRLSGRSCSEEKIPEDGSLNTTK
# PLK2, sequence (Q9NYY3 whole entry): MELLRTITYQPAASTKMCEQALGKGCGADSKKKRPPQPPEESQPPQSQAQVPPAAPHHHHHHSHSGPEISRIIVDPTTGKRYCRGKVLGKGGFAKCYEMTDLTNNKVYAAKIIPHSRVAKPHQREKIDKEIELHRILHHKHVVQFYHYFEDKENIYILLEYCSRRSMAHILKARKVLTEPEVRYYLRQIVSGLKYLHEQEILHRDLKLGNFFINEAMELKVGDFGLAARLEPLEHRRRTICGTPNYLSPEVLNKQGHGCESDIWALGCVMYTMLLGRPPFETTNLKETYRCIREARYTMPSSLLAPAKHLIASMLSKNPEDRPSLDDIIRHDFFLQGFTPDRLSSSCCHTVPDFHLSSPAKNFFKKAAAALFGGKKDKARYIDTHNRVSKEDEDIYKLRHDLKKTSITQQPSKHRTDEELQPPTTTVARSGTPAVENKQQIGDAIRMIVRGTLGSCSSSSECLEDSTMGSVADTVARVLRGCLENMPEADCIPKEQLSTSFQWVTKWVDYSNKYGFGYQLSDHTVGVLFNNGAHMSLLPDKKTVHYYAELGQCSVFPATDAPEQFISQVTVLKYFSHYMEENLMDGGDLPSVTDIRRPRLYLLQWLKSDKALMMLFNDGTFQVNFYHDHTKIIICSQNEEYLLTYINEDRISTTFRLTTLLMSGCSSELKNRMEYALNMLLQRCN
# ERBB2/HER2, sequence (P04626 whole entry): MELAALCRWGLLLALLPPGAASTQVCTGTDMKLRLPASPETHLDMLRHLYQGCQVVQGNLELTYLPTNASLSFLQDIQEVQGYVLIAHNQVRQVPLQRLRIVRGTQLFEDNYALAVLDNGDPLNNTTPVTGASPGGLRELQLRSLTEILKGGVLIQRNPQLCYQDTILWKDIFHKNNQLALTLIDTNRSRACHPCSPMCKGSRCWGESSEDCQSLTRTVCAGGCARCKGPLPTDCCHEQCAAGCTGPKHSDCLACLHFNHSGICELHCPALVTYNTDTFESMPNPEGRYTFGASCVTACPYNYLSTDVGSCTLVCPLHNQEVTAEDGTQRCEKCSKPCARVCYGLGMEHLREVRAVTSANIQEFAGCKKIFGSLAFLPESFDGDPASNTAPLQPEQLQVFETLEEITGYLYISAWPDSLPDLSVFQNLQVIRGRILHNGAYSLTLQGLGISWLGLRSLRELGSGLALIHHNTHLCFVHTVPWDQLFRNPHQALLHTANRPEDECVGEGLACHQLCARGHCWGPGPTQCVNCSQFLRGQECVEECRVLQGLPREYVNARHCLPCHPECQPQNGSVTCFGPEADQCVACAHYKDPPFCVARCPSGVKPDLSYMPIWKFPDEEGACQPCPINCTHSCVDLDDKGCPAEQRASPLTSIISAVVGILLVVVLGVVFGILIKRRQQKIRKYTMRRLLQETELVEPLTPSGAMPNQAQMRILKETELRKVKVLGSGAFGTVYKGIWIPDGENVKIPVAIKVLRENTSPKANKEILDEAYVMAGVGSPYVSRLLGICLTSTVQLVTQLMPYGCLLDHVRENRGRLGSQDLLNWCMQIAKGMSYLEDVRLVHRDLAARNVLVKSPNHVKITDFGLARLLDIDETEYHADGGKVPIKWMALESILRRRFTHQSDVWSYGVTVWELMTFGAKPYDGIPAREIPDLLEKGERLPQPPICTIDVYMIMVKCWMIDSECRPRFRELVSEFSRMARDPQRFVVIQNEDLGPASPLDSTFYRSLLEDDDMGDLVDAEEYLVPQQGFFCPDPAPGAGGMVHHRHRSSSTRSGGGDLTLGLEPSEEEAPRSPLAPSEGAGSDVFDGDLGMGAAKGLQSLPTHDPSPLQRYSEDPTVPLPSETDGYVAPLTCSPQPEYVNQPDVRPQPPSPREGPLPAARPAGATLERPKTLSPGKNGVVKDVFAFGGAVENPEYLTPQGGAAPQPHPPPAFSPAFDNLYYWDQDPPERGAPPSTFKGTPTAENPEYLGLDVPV
# PAK1, sequence (Q13153 whole entry): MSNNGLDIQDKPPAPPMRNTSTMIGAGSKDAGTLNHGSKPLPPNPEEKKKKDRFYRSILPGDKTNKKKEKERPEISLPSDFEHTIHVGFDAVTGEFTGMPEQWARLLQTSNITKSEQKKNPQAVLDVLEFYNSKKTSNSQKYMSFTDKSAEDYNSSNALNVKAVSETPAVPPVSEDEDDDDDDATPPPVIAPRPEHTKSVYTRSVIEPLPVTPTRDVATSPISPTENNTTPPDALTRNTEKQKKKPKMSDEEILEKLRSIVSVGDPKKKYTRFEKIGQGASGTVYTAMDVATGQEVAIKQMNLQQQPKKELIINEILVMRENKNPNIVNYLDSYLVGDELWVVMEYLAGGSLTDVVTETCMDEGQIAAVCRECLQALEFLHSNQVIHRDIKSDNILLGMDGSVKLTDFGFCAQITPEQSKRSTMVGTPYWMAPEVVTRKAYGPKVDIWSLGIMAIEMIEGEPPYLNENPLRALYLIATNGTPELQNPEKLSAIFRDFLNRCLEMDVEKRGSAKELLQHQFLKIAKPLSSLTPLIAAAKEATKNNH
# PHKg2, sequence (P15735 whole entry): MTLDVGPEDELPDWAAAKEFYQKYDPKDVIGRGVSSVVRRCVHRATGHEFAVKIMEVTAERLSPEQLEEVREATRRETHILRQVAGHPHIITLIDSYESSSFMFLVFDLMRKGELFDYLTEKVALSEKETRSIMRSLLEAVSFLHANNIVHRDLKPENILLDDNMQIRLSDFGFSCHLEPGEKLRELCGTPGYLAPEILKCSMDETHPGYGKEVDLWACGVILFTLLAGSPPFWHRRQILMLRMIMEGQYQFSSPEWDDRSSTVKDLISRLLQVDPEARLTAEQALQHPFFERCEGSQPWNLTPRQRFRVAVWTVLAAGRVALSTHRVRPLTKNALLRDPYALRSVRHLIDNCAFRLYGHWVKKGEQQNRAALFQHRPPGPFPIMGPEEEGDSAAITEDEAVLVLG
# DYRK1B, sequence (Q9Y463 whole entry): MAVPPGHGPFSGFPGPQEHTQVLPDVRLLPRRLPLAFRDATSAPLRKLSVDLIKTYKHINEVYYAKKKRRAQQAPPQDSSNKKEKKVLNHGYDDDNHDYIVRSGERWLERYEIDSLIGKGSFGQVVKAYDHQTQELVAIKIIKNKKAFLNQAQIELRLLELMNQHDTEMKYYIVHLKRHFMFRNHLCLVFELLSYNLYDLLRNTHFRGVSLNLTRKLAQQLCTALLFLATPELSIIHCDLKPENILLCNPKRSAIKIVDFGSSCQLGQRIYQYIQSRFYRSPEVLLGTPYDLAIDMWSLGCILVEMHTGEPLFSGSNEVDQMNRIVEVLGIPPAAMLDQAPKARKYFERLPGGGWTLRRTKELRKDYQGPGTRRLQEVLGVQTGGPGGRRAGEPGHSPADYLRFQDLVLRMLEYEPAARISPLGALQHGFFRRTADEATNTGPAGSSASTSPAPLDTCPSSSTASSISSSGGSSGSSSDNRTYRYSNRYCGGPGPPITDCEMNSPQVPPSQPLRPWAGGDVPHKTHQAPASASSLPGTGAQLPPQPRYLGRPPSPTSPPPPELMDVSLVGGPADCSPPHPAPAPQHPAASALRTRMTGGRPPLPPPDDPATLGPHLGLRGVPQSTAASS
# p70S6Kb/RPS6KB2, sequence (Q9UBS0 whole entry): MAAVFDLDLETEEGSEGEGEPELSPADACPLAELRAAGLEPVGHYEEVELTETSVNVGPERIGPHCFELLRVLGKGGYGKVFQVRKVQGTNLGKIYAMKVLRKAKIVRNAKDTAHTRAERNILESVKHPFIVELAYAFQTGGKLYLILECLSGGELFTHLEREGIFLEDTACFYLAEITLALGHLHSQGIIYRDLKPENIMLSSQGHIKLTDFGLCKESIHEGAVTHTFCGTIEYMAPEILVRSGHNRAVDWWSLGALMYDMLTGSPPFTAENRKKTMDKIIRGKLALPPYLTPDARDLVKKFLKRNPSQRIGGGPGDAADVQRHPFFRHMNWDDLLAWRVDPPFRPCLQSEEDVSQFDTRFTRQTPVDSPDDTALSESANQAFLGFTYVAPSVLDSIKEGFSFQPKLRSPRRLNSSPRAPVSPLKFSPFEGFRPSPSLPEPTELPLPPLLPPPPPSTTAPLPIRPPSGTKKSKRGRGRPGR
smiles,measurement,setting,value
COc1cc(N2CCN(C)CC2)c(C)cc1Nc1ncc(Br)c(Nc2cccnc2N(C)C)n1 [TP-5801],remaining activity at 0.3 µM,MLK1/MAP3K9; [1],77.2%
same,remaining activity at 0.3 µM,MLK1/MAP3K9; [2],76.6%
same,remaining activity at 0.3 µM,PAK1; [1],91.5%
same,remaining activity at 0.3 µM,PAK1; [2],86.4%
same,remaining activity at 0.3 µM,DYRK1B; [1],77.1%
same,remaining activity at 0.3 µM,DYRK1B; [2],75.8%
same,remaining activity at 0.3 µM,SGK1; [1],91.7%
same,remaining activity at 0.3 µM,SGK1; [2],91%
same,remaining activity at 0.3 µM,NEK6; [1],95.2%
same,remaining activity at 0.3 µM,NEK6; [2],91.5%
same,remaining activity at 0.3 µM,PLK2; [1],84%
same,remaining activity at 0.3 µM,PLK2; [2],83.9%
same,remaining activity at 0.3 µM,PKCiota; [1],101%
same,remaining activity at 0.3 µM,PKCiota; [2],99.1%
same,remaining activity at 0.3 µM,TBK1; [1],97.8%
same,remaining activity at 0.3 µM,TBK1; [2],96.4%
same,remaining activity at 0.3 µM,p70S6Kb/RPS6KB2; [1],95.7%
same,remaining activity at 0.3 µM,p70S6Kb/RPS6KB2; [2],90.1%
same,remaining activity at 0.3 µM,STK32C/YANK3; [1],90.2%
same,remaining activity at 0.3 µM,STK32C/YANK3; [2],83.2%
same,remaining activity at 0.3 µM,TGFBR2; [1],99.3%
same,remaining activity at 0.3 µM,TGFBR2; [2],97.8%
same,remaining activity at 0.3 µM,CAMK1g; [1],99%
same,remaining activity at 0.3 µM,CAMK1g; [2],97.4%
same,remaining activity at 0.3 µM,PHKg2; [1],72.4%
same,remaining activity at 0.3 µM,PHKg2; [2],71.3%
same,remaining activity at 0.3 µM,STK38/NDR1; [1],38.8%
same,remaining activity at 0.3 µM,STK38/NDR1; [2],38.7%
same,remaining activity at 0.3 µM,CAMK2b; [1],64.8%
same,remaining activity at 0.3 µM,CAMK2b; [2],64%
same,remaining activity at 0.3 µM,STK22D/TSSK1; [1],10.4%
same,remaining activity at 0.3 µM,STK22D/TSSK1; [2],8.14%
same,remaining activity at 0.3 µM,GRK5; [1],92%
same,remaining activity at 0.3 µM,GRK5; [2],89.8%
same,remaining activity at 0.3 µM,HIPK1; [1],90.8%
same,remaining activity at 0.3 µM,HIPK1; [2],89.2%
same,remaining activity at 0.3 µM,ERBB2/HER2; [1],82.3%
same,remaining activity at 0.3 µM,ERBB2/HER2; [2],81.7%
same,remaining activity at 0.3 µM,MKK4; [1],78.8%
same,remaining activity at 0.3 µM,MKK4; [2],76%
